Several values for one entry are separate records, joined by “and”; a condition that tells them apart may be missing. Equal entries are not always repeated. Entries after “also recorded” stand apart in the source; their conditions may differ.
Legend:
[1] = biological target: T1, ERα LBD fused to GAL4 DBD (Homo sapiens, UniProt P03372); assay: GeneBLAzer cell-based transcriptional activation, chimeric ERα; details: agonist mode
T1 sequence (P03372 311-547 limits assumed): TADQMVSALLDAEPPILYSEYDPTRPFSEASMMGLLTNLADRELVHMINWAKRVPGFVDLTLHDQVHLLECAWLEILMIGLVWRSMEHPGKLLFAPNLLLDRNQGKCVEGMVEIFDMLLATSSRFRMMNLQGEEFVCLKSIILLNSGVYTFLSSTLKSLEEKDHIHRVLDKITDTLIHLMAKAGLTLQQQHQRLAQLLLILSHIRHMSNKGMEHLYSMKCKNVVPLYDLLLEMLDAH

[2] = biological target: T2, Mineralocorticoid Receptor (MR) (Homo sapiens, UniProt P08235); assay: GeneBLAzer nuclear hormone receptor specificity assay, MR; type: cell-based; details: 0.25 to 25 μM; listed as ISP358-2
T2 sequence (P08235 726-964 limits assumed): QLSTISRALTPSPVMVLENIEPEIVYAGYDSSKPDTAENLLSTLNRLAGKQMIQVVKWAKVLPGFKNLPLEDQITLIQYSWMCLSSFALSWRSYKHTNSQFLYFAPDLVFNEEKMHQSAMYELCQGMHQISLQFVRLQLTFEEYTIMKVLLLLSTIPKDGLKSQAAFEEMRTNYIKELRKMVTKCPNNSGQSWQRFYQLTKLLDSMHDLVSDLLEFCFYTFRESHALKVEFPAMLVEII

[3] = biological target: T3, Vitamin D Receptor (VDR) (Homo sapiens, UniProt P11473); assay: GeneBLAzer nuclear hormone receptor specificity assay, VDR; type: cell-based; details: 0.25 to 25 μM; listed as ISP358-2
T3 sequence (P11473 127-423 limits assumed): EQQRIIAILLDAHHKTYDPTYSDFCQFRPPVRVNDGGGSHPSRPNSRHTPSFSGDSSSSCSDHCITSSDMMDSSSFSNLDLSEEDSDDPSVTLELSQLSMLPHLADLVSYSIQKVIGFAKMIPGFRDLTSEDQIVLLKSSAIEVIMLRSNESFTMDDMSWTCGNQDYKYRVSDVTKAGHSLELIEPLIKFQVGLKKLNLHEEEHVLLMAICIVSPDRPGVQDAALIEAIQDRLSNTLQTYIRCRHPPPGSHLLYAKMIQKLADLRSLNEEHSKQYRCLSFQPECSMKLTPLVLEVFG

[4] = biological target: T4, Glucocorticoid Receptor (GR) (Homo sapiens, UniProt P04150); assay: GeneBLAzer nuclear hormone receptor specificity assay, GR; type: cell-based; details: 0.25 to 25 μM; listed as ISP358-2
T4 sequence (P04150 524-758 limits assumed): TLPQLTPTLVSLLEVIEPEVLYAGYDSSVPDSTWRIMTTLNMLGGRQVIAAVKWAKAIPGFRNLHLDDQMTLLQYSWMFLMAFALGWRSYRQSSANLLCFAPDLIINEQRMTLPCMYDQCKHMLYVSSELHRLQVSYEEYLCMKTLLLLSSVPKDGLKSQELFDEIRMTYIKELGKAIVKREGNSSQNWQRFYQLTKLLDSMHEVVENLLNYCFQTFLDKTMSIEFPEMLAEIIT

[5] = biological target: T5, ERα (Homo sapiens, UniProt P03372); assay: Cell-based luciferase reporter assay, full length ERα, agonist mode; details: full length ERα, 22 h, read-out: ERα agon. IC50
T5 construct: employs a full length and native ER (comprised of an ER LBD and an ER DBD)
T5 sequence (P03372 1-595): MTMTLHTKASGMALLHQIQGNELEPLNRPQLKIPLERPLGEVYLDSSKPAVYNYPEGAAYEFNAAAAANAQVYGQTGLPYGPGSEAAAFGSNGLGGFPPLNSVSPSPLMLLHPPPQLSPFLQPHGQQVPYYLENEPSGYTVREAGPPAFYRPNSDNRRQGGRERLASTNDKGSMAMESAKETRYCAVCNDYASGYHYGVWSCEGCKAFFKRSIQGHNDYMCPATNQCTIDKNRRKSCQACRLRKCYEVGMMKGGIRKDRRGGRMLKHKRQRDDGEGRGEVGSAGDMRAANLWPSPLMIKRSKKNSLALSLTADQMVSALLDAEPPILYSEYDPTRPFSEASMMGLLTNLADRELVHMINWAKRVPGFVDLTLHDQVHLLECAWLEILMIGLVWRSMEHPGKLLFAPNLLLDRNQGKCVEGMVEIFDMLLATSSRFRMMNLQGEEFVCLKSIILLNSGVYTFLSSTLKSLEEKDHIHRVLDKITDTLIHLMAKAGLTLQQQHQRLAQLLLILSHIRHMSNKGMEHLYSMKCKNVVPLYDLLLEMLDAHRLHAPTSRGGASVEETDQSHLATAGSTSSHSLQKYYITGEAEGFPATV

[6] = biological target: T6, Androgen Receptor (AR) (Homo sapiens, UniProt P10275); assay: GeneBLAzer nuclear hormone receptor specificity assay, AR; type: cell-based; details: 0.25 to 25 μM; listed as ISP358-2
T6 sequence (P10275 669-900 limits assumed): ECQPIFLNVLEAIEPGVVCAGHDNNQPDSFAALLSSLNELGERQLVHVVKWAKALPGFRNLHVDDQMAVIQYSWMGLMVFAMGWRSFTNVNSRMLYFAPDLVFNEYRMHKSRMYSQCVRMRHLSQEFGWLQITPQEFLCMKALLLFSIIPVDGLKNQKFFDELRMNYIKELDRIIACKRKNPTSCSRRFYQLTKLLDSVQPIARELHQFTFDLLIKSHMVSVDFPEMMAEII

[7] = system: ovariectomized mice; assay: Bloodwork chemistry and hematology panel; type: in vivo; details: single IP injection, 0.5 or 5 mg/kg
Description: FIG. 14. Bloodwork panel for tissue pathology analysis for ISP358-2. Bloodwork hematology analysis was performed by Animal Reference Pathology, LLC in Salt Lake City, Utah (animalreferencepathology.com). Reference ranges are from Charles River Laboratories for CrL: Wi (Han) female 8-16 weck old rats. Blood samples were taken via cardiac puncture at the same time point and treatment conditions as in FIGS. 13A-13M. […] In some cases hemolysis occurred, likely due to the blood collection procedure, which precluded analysis for those samples, thus, samples sizes in the analysis were 6-8. The mean and standard error of the mean of cach group is listed in the table, along with outcomes from one-way ANOVA statistical analysis. […] The hematology samples were analyzed by a Sysmex XT-2000iV using veterinary software and the rat species setting.^3 The reagents for individual assays were sourced from either Seimens, RandOx or Sekisui.

## OC[C@H]1CC[C@H](c2ccc(O)cc2)CC1 [Compound 16]
[1]
  IC50: 0.93 ± 0.069 µM
[2]
  agonist activity, MR: not an agonist; also recorded: no significant off-target activity
[3]
  agonist activity, VDR: not an agonist; also recorded: no significant off-target activity
[4]
  agonist activity, GR: not an agonist; also recorded: no significant off-target activity
[5]
  IC50: 20.4 µM and 18.6 µM
[6]
  agonist activity, AR: not an agonist; also recorded: no significant off-target activity
[7]
  bloodwork chemistry and hematology vs reference ranges: do not show significant deviations from expected reference ranges
